Source: ChEMBL document CHEMBL1140239, “Novel phomactin analogues as PAF receptor ligands” (Bioorg Med Chem Lett, 2005)

Molecular target: Platelet-activating factor receptor (Homo sapiens, UniProt P25105)
Assay: Inhibition of [3H]PAF binding to platelet activating factor receptor in human platelet

Platelet-activating factor receptor, sequence (P25105 whole entry): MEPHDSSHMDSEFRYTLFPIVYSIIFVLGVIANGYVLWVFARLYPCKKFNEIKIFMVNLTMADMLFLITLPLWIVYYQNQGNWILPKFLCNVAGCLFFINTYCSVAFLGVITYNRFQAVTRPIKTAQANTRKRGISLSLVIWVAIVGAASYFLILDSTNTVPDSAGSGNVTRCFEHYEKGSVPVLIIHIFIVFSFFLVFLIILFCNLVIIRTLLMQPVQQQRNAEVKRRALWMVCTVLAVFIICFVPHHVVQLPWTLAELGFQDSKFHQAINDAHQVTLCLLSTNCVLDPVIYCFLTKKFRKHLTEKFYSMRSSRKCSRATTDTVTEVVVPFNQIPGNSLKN

IC50 [nM]	SMILES
1120	C/C1=C\CC[C@]2(C)O[C@H]2[C@@]2(O)OCC3=C2[C@H](O)C[C@@H](C)[C@]3(C)CC1
1260	C/C1=C\CC[C@]2(C)O[C@@H]3C[C@@H](C)C(C)(CC1)C1=C3[C@](O)(OC1)[C@H]2O (single isomer, unassigned)
1150	C/C1=C\[C@@]2(O)OC[C@]34O[C@]23CC[C@@H](C)C4(C)CC/C(C)=C/CC1 (single isomer, unassigned)
575	C/C1=C\CC[C@@]2(C)O[C@@H]2[C@@]2(O)OCC3=C2CC[C@@H](C)[C@]3(C)CC1
1450	C/C1=C\CC[C@@]2(C)O[C@@H]2[C@@]2(O)OCC3=C2[C@@H](O)C[C@@H](C)[C@]3(C)CC1
575	C/C1=C\CC[C@]2(C)O[C@H]2[C@@]2(O)OCC3=C2CC[C@@H](C)[C@]3(C)CC1

SMILES	IC50 [nM]
C/C1=C\CC[C@]2(C)O[C@@H]3C[C@@H](C)[C@](C)(CC1)[C@]14CO[C@](O)([C@H]2O)[C@]31O4	2340
